Measured values: patent US9439874B2, “Food composition for nourishing, maintaining and cultivating a variety of stem cells and a method for manufacturing the same” (THE WRITER OF RESVERATROL BIOTECH R&D CO., LTD., priority 2012, dated 2016)

Columns and labels:
[1] = tested on: rat mesenchymal stem cells; details: cited from earlier work
Lewis lung carcinoma = details: mouse, in vivo; cited from earlier work
esophageal cancer cell = details: cited from earlier work
cancer stem cells = details: cited from earlier work
[2] = isomerization under irradiation of UV analyzer; format: physicochemical; details: UV analyzer 136 μw/cm^2, embedded vs unembedded
Excerpt: 2. Solutions to the problem of cis & trans structures and transformation of resveratrol. Trans-resveratrol is very instable and will transform into cis-resveratrol under the UV irradiation. After its aqueous solution (pH1-7) kept in dark place for 28 day, 4.7% of the trans-resveratrol will transform into cis-resveratrol. Low water solubility and poor stability under UV irradiation restrict the all-purpose application. Therefore, HP-β-CD is used to embed the resveratrol into inclusion compound. […] Moreover, the food formula packaged by capsule solves the problems of oxidization misgivings and stability.

[3] = tested on: human laryngeal cancer Hep-2 cell; details: cited from earlier work
[4] = cited from earlier work
L-8 = details: mouse, in vivo; cited from earlier work
[5] = tested on: nematodes, drosophila, African Carp and mouse; details: cited from earlier work
MDA-MB-231 cell = details: combination with TRAIL; cited from earlier work
[6] = tested on: malignant glioma cell line U87 and cancer stem cells (CSCs); details: cited from earlier work
[7] = tested on: human gastric cancer BGC823 cells; details: cited from earlier work
Lymphoma Raji cells = details: in vitro; cited from earlier work
[8] = tested on: human lung adenocarcinoma A549 cells; details: 20 μM, EGF-induced; cited from earlier work
[9] = tested on: human telomerase reverse transcriptase (hTERT); details: dose- and time-dependent; cited from earlier work
[10] = tested on: cervical cancer Hela cells; details: cited from earlier work

## O=c1c(O)c(-c2ccc(O)c(O)c2)oc2cc(O)cc(O)c12 [quercetin]
[1]
  proliferation and differentiation of mesenchymal stem cells of bone marrow: promote
[1]; differentiation of mesenchymal stem cells
  expression of BMP2 mRNA: increase

## Oc1ccc(C=Cc2cc(O)cc(O)c2)cc1 [resveratrol]
Lewis lung carcinoma
  growth of Lewis lung carcinoma in mice: inhibiting the growth
Esophageal cancer cell
  esophageal cancer cell apoptosis: induce
Cancer stem cells; high concentration of resveratrol with radiotherapy
  cancer stem cells survival: one-third
Cancer stem cells; high concentration of resveratrol, mice bearing tumor
  enhancement of radiotherapy: 30%-50%
[2]
  isomerization under UV irradiation: quickens up isomerization
[3]
  Hep-2 cell proliferation: suppress
[4]; ethyl ether, chloroform, methanol, ethanol, acetone, acetic ether
  solubility in organic solvents: soluble
[4]; water
  solubility in water: hardly soluble (slightly soluble)
L-8
  tumor-bearing mice L-8 generation: inhibit
[5]
  prolongation of life: 30-75%
MDA-MB-231 cell
  TRAIL-induced cell apoptosis: enhanced
[6]
  apoptosis of U87 and cancer stem cells: induce
[7]
  proliferation of BGC823 cells: inhibit
[7]; with the extension of the time
  telomerase activity in BGC823: declined
Lymphoma Raji cells
  IL-8 mRNA expression of lymphoma Raji cells: inhibit
  proliferation of lymphoma Raji cells: inhibit
[8]
  A549 cells' invasion: inhibit
[9]
  expression of hTERT mRNA and protein: down-regulated
[10]
  in vitro growth of cervical cancer Hela cells: obvious inhibition effects
